Measurements published in US9073895B2 (Boehringer Ingelheim International GmbH, priority 2010, dated 2015).

Key:
[1] = molecular target: T1, recombinant human FLAP protein (Homo sapiens, UniProt P20292); assay: FLAP binding assay (SPA, displacement of [125I]L-691,831); settings: membranes of sf9 cells expressing human FLAP, [125I]L-691,831 probe; read-out: hFLAP binding IC50
T1 construct: made in house; host or cells: Sf9 insect cells (membrane fraction, 100,000 x g pellet)
T1 sequence (P20292 1-161): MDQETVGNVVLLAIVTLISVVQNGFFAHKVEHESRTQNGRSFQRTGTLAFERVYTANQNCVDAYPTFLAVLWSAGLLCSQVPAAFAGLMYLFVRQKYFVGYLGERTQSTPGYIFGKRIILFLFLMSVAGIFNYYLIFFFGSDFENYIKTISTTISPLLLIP
Method in brief: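 Membranes from sf9 cells expressing human FLAP (5 μg/well) were bound to WGA SPA beads (200 μg/well). Nonspecific binding was defined with 10 μM unlabelled L-691,831.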

[2] = test system: synthesis of LTB4 in human whole blood; assay: Human whole blood LTB4 production inhibition assay; type: cell-based; settings: heparinized human whole blood, calcimycin 20 μM, plasma LTB4; read-out: HuWB IC50
Method in brief: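 Whole-blood cellular format, heparinized human donors: 15 min compound pretreatment, then 30 min calcimycin stimulation (20 μM final), both at 37° C. Low-speed centrifugation yields plasma, in which LTB4 is read by homogeneous time-resolved fluorescence immunoassay.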

IC50 [1] [nM]	IC50 [2] [nM]	Compound
3.95	986	Cc1nc(-c2ccc(NC(=O)C(C)(c3ccc(-c4cnc(N)nc4)cc3)C(C)C)nc2)cs1 (centres unmarked) [Example 119, 2-[4-(2-aminopyrimidin-5-yl)phenyl]-2,3-dimethyl-N-[5-(2-methyl-1,3-thiazol-4-yl)pyridin-2-yl]butanamide]
11.5	1270	Cc1nc(-c2ccc(NC(=O)C3(c4ccc(-c5cnc(N)nc5)cc4)CCCCC3)cc2)cs1 [Example 120, 1-[4-(2-aminopyrimidin-5-yl)phenyl]-N-[4-(2-methyl-1,3-thiazol-4-yl)phenyl]cyclohexane-carboxamide]
19	1880	Cc1nc(-c2ccc(NC(=O)C3(c4ccc(-c5cnc(N)nc5)cc4)CCOCC3)cc2)cs1 [Example 121, 4-[4-(2-aminopyrimidin-5-yl)phenyl]-N-[4-(2-methyl-1,3-thiazol-4-yl)phenyl]tetrahydro-2H-pyran-4-carboxamide]
9.53	1040	Cc1nc(-c2ccc(NC(=O)C3(c4ccc(-c5cnc(N)nc5)cc4)CCOCC3)nc2)cs1 [Example 122, 4-[4-(2-aminopyrimidin-5-yl)phenyl]-N-[5-(2-methyl-1,3-thiazol-4-yl)pyridin-2-yl]tetrahydro-2H-pyran-4-carboxamide]
4	919	Cc1nc(-c2ccc(NC(=O)C3(c4ccc(-c5cnc(N)nc5)cc4)CCCCC3)nc2)cs1 [Example 123, 1-[4-(2-aminopyrimidin-5-yl)phenyl]-N-[5-(2-methyl-1,3-thiazol-4-yl)pyridin-2-yl]cyclohexanecarboxamide]
77.5	2170	CC(C)(C)c1nsc(NC(=O)C2(c3ccc(-c4cnc(N)nc4)cc3)CCOCC2)n1 [Example 124, 4-[4-(2-aminopyrimidin-5-yl)phenyl]-N-(3-tert-butyl-1,2,4-thiadiazol-5-yl)tetrahydro-2H-pyran-4-carboxamide]
173	5560	Nc1ncc(-c2ccc(C3(C(=O)Nc4cc(C(F)(F)F)no4)CCOCC3)cc2)cn1 [Example 125, 4-[4-(2-aminopyrimidin-5-yl)phenyl]-N-[3-(trifluoromethyl)-1,2-oxazol-5-yl]tetrahydro-2H-pyran-4-carboxamide]
180	12000	CC(C)(C)c1noc(NC(=O)C2(c3ccc(-c4cnc(N)nc4)cc3)CCCCC2)n1 [Example 126, 1-[4-(2-aminopyrimidin-5-yl)phenyl]-N-(3-tert-butyl-1,2,4-oxadiazol-5-yl)cyclohexanecarboxamide]
9	3220	CC(C)C(C)(C(=O)Nc1ccccn1)c1ccc(-c2cnc(N)nc2)cc1 (centres unmarked) [Example 127, 2-[4-(2-aminopyrimidin-5-yl)phenyl]-2,3-dimethyl-N-(pyridin-2-yl)butanamide]
140	815	Cc1nc(-c2ccc(NC(=O)C3(c4ccc(-c5cnc(N)nc5)cn4)CCOCC3)nc2)cs1 [Example 128, 4-[5-(2-aminopyrimidin-5-yl)pyridin-2-yl]-N-[5-(2-methyl-1,3-thiazol-4-yl)pyridin-2-yl]tetrahydro-2H-pyran-4-carboxamide]
10.4	8620	Nc1ncc(-c2ccc(C3(C(=O)Nc4ccccn4)CCC3)cc2)cn1 [Example 129, 1-[4-(2-aminopyrimidin-5-yl)phenyl]-N-(pyridin-2-yl)cyclobutanecarboxamide]
1.52	224	COc1cncc(-c2ccc(NC(=O)C3(c4ccc(-c5cnc(N)nc5)cc4)CCC3)nc2)c1 [Example 130, 1-[4-(2-aminopyrimidin-5-yl)phenyl]-N-(5'-methoxy-3,3'-bipyridin-6-yl)cyclobutanecarboxamide]
2.2	414	Cc1nc(-c2ccc(NC(=O)C3(c4ccc(-c5cnc(N)nc5)cc4)CCC3)nc2)cs1 [Example 131, 1-[4-(2-aminopyrimidin-5-yl)phenyl]-N-[5-(2-methyl-1,3-thiazol-4-yl)pyridin-2-yl]cyclobutanecarboxamide]
